# Activity calls are given as the source filed them. The rule behind the calls is not given here.
# Assays:
# [1] = target: Mu-type opioid receptor (Homo sapiens) (UniProt P35372); experiment: Agonist activity at human mu-opioid receptor expressed in CHO cell membranes assessed as stimulation of [35S]GTPgammaS binding at 10 uM incubated for 60 mins by scintillation counting method; assay type: functional
# [2] = target: Delta-type opioid receptor (Homo sapiens) (UniProt P41143); experiment: Agonist activity at human delta-opioid receptor expressed in CHO cell membranes assessed as stimulation of [35S]GTPgammaS binding at 10 uM incubated for 60 mins by scintillation counting method; assay type: functional
# Delta-type opioid receptor (Homo sapiens), sequence (P41143 whole entry): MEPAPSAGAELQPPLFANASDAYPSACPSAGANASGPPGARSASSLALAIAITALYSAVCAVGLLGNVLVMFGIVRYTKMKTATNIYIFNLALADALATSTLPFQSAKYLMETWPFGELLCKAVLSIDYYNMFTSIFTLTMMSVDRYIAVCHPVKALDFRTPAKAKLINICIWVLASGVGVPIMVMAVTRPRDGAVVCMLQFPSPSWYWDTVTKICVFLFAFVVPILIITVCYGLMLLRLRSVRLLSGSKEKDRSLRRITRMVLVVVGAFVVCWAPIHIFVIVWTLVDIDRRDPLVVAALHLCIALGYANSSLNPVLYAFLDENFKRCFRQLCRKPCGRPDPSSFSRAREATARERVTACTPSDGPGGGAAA
# [3] = target: Kappa-type opioid receptor (Homo sapiens) (UniProt P41145); experiment: Agonist activity at human kappa-opioid receptor expressed in CHO cell membranes assessed as stimulation of [35S]GTPgammaS binding at 10 uM incubated for 60 mins by scintillation counting method; assay type: functional
# Kappa-type opioid receptor (Homo sapiens), sequence (P41145 whole entry): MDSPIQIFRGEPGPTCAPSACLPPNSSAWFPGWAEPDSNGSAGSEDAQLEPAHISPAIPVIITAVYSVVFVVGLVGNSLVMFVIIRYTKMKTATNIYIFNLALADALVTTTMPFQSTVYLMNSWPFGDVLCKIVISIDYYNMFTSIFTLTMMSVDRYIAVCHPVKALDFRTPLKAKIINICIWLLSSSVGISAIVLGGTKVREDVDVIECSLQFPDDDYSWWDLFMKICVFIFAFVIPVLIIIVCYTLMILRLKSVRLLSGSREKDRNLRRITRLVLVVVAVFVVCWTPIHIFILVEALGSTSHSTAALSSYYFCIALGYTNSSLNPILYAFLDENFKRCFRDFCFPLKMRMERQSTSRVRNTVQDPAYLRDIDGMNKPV
# [4] = target: Mu-type opioid receptor (Homo sapiens) (UniProt P35372); experiment: Antagonist activity at human mu-opioid receptor expressed in CHO cell membranes assessed as inhibition of DAMGO-induced [35S]GTPgammaS binding incubated for 60 mins by scintillation counting method; assay type: functional
# [5] = target: Kappa-type opioid receptor (Homo sapiens) (UniProt P41145); experiment: Antagonist activity at human kappa-opioid receptor expressed in CHO cell membranes assessed as inhibition of U69593-induced [35S]GTPgammaS binding incubated for 60 mins by scintillation counting method; assay type: functional
# [6] = species on record: Homo sapiens; experiment: Selectivity index, ratio of Ke for antagonist activity at human mu-opioid receptor expressed in CHO cell membranes to Ke for antagonist activity at human kappa-opioid receptor expressed in CHO cell membranes; assay type: cell-based
# [7] = target: Delta-type opioid receptor (Homo sapiens) (UniProt P41143); experiment: Antagonist activity at human delta-opioid receptor expressed in CHO cell membranes assessed as inhibition of DPDPE-induced [35S]GTPgammaS binding incubated for 60 mins by scintillation counting method; assay type: functional
# [8] = Ratio of AUClast in brain to plasma of Sprague-Dawley CD rat at 5 mg/kg, sc administered as single dose measured over 1 to 168 hrs post dose by LC/MS-MS method; assay type: ADME, organism-based; details: Sprague-Dawley CD, brain and plasma, read-out: BPR
# [9] = species on record: Homo sapiens; experiment: Selectivity index, ratio of Ke for antagonist activity at human delta-opioid receptor expressed in CHO cell membranes to Ke for antagonist activity at human kappa-opioid receptor expressed in CHO cell membranes; assay type: cell-based
# Mu-type opioid receptor (Homo sapiens), sequence (P35372 whole entry): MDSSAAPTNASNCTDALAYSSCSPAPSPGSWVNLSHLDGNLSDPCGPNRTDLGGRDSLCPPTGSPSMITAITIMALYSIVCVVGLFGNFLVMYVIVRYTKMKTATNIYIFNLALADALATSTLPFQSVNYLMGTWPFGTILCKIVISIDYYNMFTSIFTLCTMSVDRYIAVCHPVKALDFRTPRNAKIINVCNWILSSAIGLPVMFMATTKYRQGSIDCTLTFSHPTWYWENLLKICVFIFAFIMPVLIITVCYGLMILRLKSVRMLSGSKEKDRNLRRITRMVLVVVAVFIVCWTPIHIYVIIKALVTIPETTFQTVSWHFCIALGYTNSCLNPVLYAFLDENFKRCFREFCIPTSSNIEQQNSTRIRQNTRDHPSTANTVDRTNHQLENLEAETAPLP
Activity [1],Activity [2],Activity [3],Ke [7] [nM],SMILES,Ke [4] [nM],Ke [5] [nM],Ratio Ke [6],Kp [8],Ratio Ke [9]
inactive,inactive,inactive,,CC(C)[C@@H](CN1CC[C@H](C)[C@@H](C)C1)NC(=O)[C@H]1Cc2ccc(O)cc2CN1 (mixture of isomers),,,,,
inactive,inactive,inactive,,CC1CCN(C[C@@H](NC(=O)c2ccc3cc(O)ccc3c2)C(C)C)CC1,,,,,
inactive,inactive,inactive,,CC1CC(C)CN(C[C@@H](NC(=O)[C@H]2Cc3ccc(O)cc3CN2)C(C)C)C1 (stereo not given in full),,,,,
inactive,inactive,inactive,> 3000,CC1CCN(C[C@H](NC(=O)[C@@H]2Cc3ccc(O)cc3CN2)C(C)C)CC1,,,,,
,,,,CC(C)[C@@H](CN1CC[C@@](C)(c2cccc(O)c2)[C@@H](C)C1)NC(=O)[C@H]1Cc2ccc(O)cc2CN1 [JDTIC],,,,7,
inactive,inactive,inactive,,CC1CCN(C[C@@H](NC[C@H]2Cc3ccc(O)cc3CN2)C(C)C)CC1,,,,,
inactive,inactive,inactive,,CC1CCN(C[C@@H](NC(=O)[C@@H]2CCc3cc(O)ccc3C2)C(C)C)CC1,,,,,
inactive,inactive,inactive,,CC1CCN(C[C@@H](NC(=O)[C@H](N)Cc2ccc(O)cc2)C(C)C)CC1,,,,,
inactive,inactive,inactive,,CC1=C(C)CN(C[C@@H](NC(=O)[C@H]2Cc3ccc(O)cc3CN2)C(C)C)CC1,,,,,
,,,,CC(C)[C@@H](CN1CC[C@@](C)(c2cccc(O)c2)[C@@H](C)C1)NC(=O)[C@H]1Cc2ccc(O)cc2CN1C,,,1310,,3070
inactive,inactive,inactive,,CC(C)[C@@H](CN1CCCCCC1)NC(=O)[C@H]1Cc2ccc(O)cc2CN1,,,,,
inactive,inactive,inactive,,CC1CCCN(C[C@@H](NC(=O)[C@H]2Cc3ccc(O)cc3CN2)C(C)C)C1 (mixture of isomers),,,,,
inactive,inactive,inactive,,O=C(NCCN1CCCCC1)[C@H]1Cc2ccc(O)cc2CN1,,,,,
inactive,inactive,inactive,,CC1CCN(C[C@@H](NC(=O)[C@H]2Cc3ccc(O)cc3CN2)C2CC2)CC1,,,,,
inactive,inactive,inactive,,CC(C)[C@@H](CN1CCCCC1=O)NC(=O)[C@H]1Cc2ccc(O)cc2CN1,,,,,
inactive,inactive,inactive,> 3000,CC1CCN(C[C@H](NC(=O)[C@H]2Cc3ccc(O)cc3CN2)C(C)C)CC1,,,,,
inactive,inactive,inactive,,CC(C)[C@@H](CN1CCCC1)NC(=O)[C@H]1Cc2ccc(O)cc2CN1,,,,,
inactive,inactive,inactive,,CC(C)[C@@H](CN1CC=CCC1)NC(=O)[C@H]1Cc2ccc(O)cc2CN1,,,,,
inactive,inactive,inactive,,CC1=CCCN(C[C@@H](NC(=O)[C@H]2Cc3ccc(O)cc3CN2)C(C)C)C1,,,,,
inactive,inactive,inactive,> 3000,CC1CCN(C[C@@H](NC(=O)[C@@H]2Cc3ccc(O)cc3CN2)C(C)C)CC1,,,,,
inactive,inactive,inactive,,CC(C)[C@@H](CN1CC[C@@H](C)[C@@H](C)C1)NC(=O)[C@H]1Cc2ccc(O)cc2CN1 (mixture of isomers),,,,,
inactive,inactive,inactive,,CCCN(CCC)C[C@@H](NC(=O)[C@H]1Cc2ccc(O)cc2CN1)C(C)C,,,,,
inactive,inactive,inactive,,CC1=CCN(C[C@@H](NC(=O)[C@H]2Cc3ccc(O)cc3CN2)C(C)C)CC1,,,,,

SMILES,Activity [1],Activity [2],Activity [3],Ke [7] [nM],Ke [4] [nM],Ke [5] [nM],Ratio Ke [6],Kp [8],Ratio Ke [9]
CC(C)[C@@H](CN1CCC(C(F)(F)F)CC1)NC(=O)[C@H]1Cc2ccc(O)cc2CN1,inactive,inactive,inactive,,67.9,4.69,14,,
CC(C)CN(CC(C)C)C[C@@H](NC(=O)[C@H]1Cc2ccc(O)cc2CN1)C(C)C,inactive,inactive,inactive,,,137,,,
CC(C)[C@@H](CN1CCCCC1C)NC(=O)[C@H]1Cc2ccc(O)cc2CN1 (mixture of isomers),inactive,inactive,inactive,,44.9,15.1,3,,
CC(C)[C@@H](CN1CCC(C#N)CC1)NC(=O)[C@H]1Cc2ccc(O)cc2CN1,inactive,inactive,inactive,,647,12.7,51,,
COC1CCN(C[C@@H](NC(=O)[C@H]2Cc3ccc(O)cc3CN2)C(C)C)CC1,inactive,inactive,inactive,,198,6.53,30,,
CC(C)[C@@H](CN1CCCCC1)NC(=O)[C@H]1Cc2ccc(O)cc2CN1,inactive,inactive,inactive,,,,,,
CC(C)[C@@H](CN1CCN(C)CC1)NC(=O)[C@H]1Cc2ccc(O)cc2CN1,inactive,inactive,inactive,,915,98.8,9,,
CC(C)[C@@H](CN1C2CCC1CC2)NC(=O)[C@H]1Cc2ccc(O)cc2CN1,inactive,inactive,inactive,,,,,,
CC(C)[C@@H](CN1CCC(C(F)F)CC1)NC(=O)[C@H]1Cc2ccc(O)cc2CN1,inactive,inactive,inactive,,70.9,3.45,,,
CC(C)[C@@H](CN1CCC(N(C)C)CC1)NC(=O)[C@H]1Cc2ccc(O)cc2CN1,inactive,inactive,inactive,,318,8.08,39,,
CC(C)[C@@H](CN1CCC(C(N)=O)CC1)NC(=O)[C@H]1Cc2ccc(O)cc2CN1,inactive,inactive,inactive,,129,3.22,40,,
CCC1CCN(C[C@@H](NC(=O)[C@H]2Cc3ccc(O)cc3CN2)C(C)C)CC1,inactive,inactive,inactive,2490,74.8,2.48,30,,1000
CC(C)[C@@H](CN1CCC(C)(C)CC1)NC(=O)[C@H]1Cc2ccc(O)cc2CN1,inactive,inactive,inactive,847,142,,40,,> 237
CCN(CC)C[C@@H](NC(=O)[C@H]1Cc2ccc(O)cc2CN1)C(C)C,inactive,inactive,inactive,,,,16.5,,
CC(C)[C@@H](CN1CCOCC1)NC(=O)[C@H]1Cc2ccc(O)cc2CN1,inactive,inactive,inactive,,,396,,,
CC(C)[C@@H](CN1CCC(F)(F)CC1)NC(=O)[C@H]1Cc2ccc(O)cc2CN1,inactive,inactive,inactive,,604,11.8,51,,
